Key:
Format in all cases: cell-based, human
[1] = system: THP-1 cells; assay: CXCL8 production by LPS stimulated THP-1 cells (ELISA); conditions: LPS 10 ng/ml, purchased compound, mean LPS CXCL8 201.1 pg/ml = 100%
Procedure: (§1) THP-1 cells (10^5 cells/200 μL/well) and RA FLS (104/200 μL/well) were plated in 96 well plates and pre-treated with compound or vehicle for 1 h and then stimulated with either LPS (10 ng/ml), 1L-1ß (2 ng/ml) or TNF (2 ng/ml for THP-1 and 1 ng/ml for RA FLS). After 18 h of incubation, supernatants were collected and the levels of cytokines and chemokines in the culture supernatants were measured by ELISA according to the manufacturer's protocols (R&D systems, Minneapolis, MN).
The 122 hit compounds underwent additional screening and were evaluated for their effects on cell viability and the ability to suppress production of an NF-κB-associated chemokine, CXCL8 (IL-8) by LPS stimulated THP-1 cells (FIG. 2D). The cells were also examined for viability after 24 h of stimulation by MTT assay (FIG. 2E).
Three of the eleven chemotypes were excluded based on the potential for them to be Michael acceptors, In many cases α,β-unsaturated carbonyls such as those found in these chemotypes can form adducts with thiols, especially under physiological conditions (pH=6-8), reducing the in vivo efficacy. Also, Michael acceptors are often […] IKKß inhibitors and thereby inhibit NF-KB response. […]

[2] = system: THP-1 cells; assay: IL-1ß stimulated CXCL8 release by THP-1 cells; conditions: IL-1ß 2 ng/ml, overnight (FIG. 3C)
Procedure: as §1
The lead compounds belonging to chemotypes 1, 3, and 5 were tested for potency in suppressing chemokine and cytokine production by THP-1 cells in the presence of different inflammatory stimuli. The production of CXCL8 induced by either LPS (10 ng/ml), IL-1ß (2 ng/ml), or TNF (2 ng/ml) and TNF induced by IL-1ß (2 ng/ml) was assessed using serially diluted compounds. The compounds except 1-2 reduced the level of CXCL8 production stimulated by LPS in a dose dependent manner (FIG. 3A). However, the compounds from chemotype 5 enhanced CXCL8 release by THP-1 cells when stimulated with IL-111, or TNF (FIGS. 3B, C). […] The 1Cs0 for 1-1, 1-2 and 3-1 for IL-1ß stimulated CXCL8 release included 400, 1770, and 2020 nM, respectively, (FIG. 3C).

[3] = system: THP-1 cells; assay: Combination and synergy of compounds with DEX, CXCL8 release by TNF stimulated THP-1 cells
Procedure: Drug synergy analysis was performed using lsobologram plots which were calculated according to reported procedures to compute IC50 and determine synergism. IC50 is computed from the median effect equation. Synergism analysis is carried out using the Combination index (Cl)-isobol method. Data analysis was performed using the CompuSyn software available on combisyn.com, Detailed methodology was used as described in a prior report. Briefly, the median-effect equation is computed to obtain the linear regression for the effect of inhibitors DEX and 1−1 as Fa/Fu=(D/D50)^m, where D is the dose; Fa and Fu is the fraction of the inhibition and uninhibited response by the dose D (Fa+Fu=1); D50 is the dose producing the median effect (i.e, IC50). The constant m determines the shape of the dose-effect curve. The median-effect equation in logarithmic form is log (Fa/Fu) =m log(D)−m log (D50) which essentially represents a linear relationship between log(Fa/Fu) and log(D). […] This is followed by Cl-isobol method to quantitatively assess the synergism between these inhibitor drugs. A combination index (Cl) is estimated from dose-effect data of single and combined drug treatments. A value of C; less than one indicates synergism; Cl=1 indicates additive effect; and Cl>1 indicates antagonism. Drug interaction (synergism or antagonism) is more pronounced the further a CI value is from 1. […] The doses Dx1 and Dx2 were estimated from the median effect equation above for single drug treatments. From the median effect equation, the estimated dose (i.e., D) necessary to produce the inhibition (i.e., Fa, Fu) obtained by the combination was calculated. The results are presented as a normalized isobolograrn. A point in the isobologram represents the effect of a drug(s) treatment.
To assess whether the remaining candidate compounds would provide additional benefit to a low dose of glucocorticoid, THP-1 cells were stimulated with TNF and treated them with serially diluted compounds and 100 nM DEX (FIGS. 4A-C). […] Next whether there was an additive or synergistic effect with these three compounds and DEX was formally addressed. […] The four CXCL8 levels below the maximum plateau were used to calculate an isobologram (FIG. 5D).

Compound: Cc1ccc(-n2ncc3c(NC4CCCCC4)ncnc32)c(C)c1 [Compound 1-1]
- CXCL8 production. Relative to LPS (purchased) [1]: 47.1%
- IC50 [2]: 400 nM
- Effect of addition of DEX on CXCL8 production ([3]; TNF 2 ng/ml stimulated THP-1 cells, serially diluted compound plus 100 nM DEX (FIGS. 4A-C)): significantly reduced the CXCL8 production at all of the effective doses
- Synergy with DEX, isobologram of potency ratios for CXCL8 ([3]; TNF stimulated THP-1 cells, compound and DEX titrated at same molarity (FIG. 5D)): demonstrating synergy
- IC50 ([3]; TNF stimulated THP-1 cells, single agents (FIG. 5A), read-out: IC50 for TNF stimulated CXCL8 release (titration with DEX)): 968 nM

— patent publication US20230365570A1, “COMPOUNDS WITH GLUCOCORTICOID SPARING EFFECTS AND USES THEREOF” (The Regents of the University of California, priority 2020, published 2023)
